Laboratory results from PubChem BioAssay (NCI).
Values joined by “and” are separate entries in the source; they are usually repeats but may differ in a detail not shown here. Equal entries are not always repeated.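 1) Cells in 96-well plates. 2) Compound, 48 h, 5 concentrations. 3) Linear interpolation between surrounding doses. 4) Unreached endpoint = highest concentration. GI50: concentration for 50% inhibition of growth. TGI denotes the concentration required for complete inhibition of growth.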

Columns and labels:
Assay in all cases: DTP human tumour cell line panel, 48 h
RPMI-8226 leukemia = test system: RPMI-8226 leukemia
SR leukemia = test system: SR leukemia
A549 NSCLC = test system: A549 NSCLC
KM12 colon = test system: KM12 colon
SF-295 CNS = test system: SF-295 CNS
UACC-62 melanoma = test system: UACC-62 melanoma
HCT-116 colon = test system: HCT-116 colon
HOP-92 NSCLC = test system: HOP-92 NSCLC
LOX IMVI melanoma = test system: LOX IMVI melanoma
HL-60(TB) leukemia = test system: HL-60(TB) leukemia

`Cc1cn2c(/C=N/N=C(N)N)c(-c3cccs3)nc2s1` gave a GI50 (RPMI-8226 leukemia) of 1.48 µM, a TGI (RPMI-8226 leukemia) of 3.5 µM and a GI50 (SR leukemia) of 2 µM. The TGI (SR leukemia) was 3.99 µM, the GI50 (A549 NSCLC) was 10.6 µM and the TGI (A549 NSCLC) was 31.1 µM. The GI50 (KM12 colon) was 2.39 µM, the TGI (KM12 colon) was 8.3 µM and the GI50 (SF-295 CNS) was 3.28 µM. For the same compound, the TGI (SF-295 CNS) was 14.4 µM, the GI50 (UACC-62 melanoma) was 1.64 µM and the TGI (UACC-62 melanoma) was 3.12 µM. The GI50 (HCT-116 colon) was 1.35 µM and the TGI (HCT-116 colon) was 2.63 µM.

`Cc1c(C(=O)/C=C/c2ccc(N(C)C)cc2)c(=O)n(-c2ccccc2)n1C` was tested, and the TGI (HOP-92 NSCLC) was > 100 µM, the TGI (A549 NSCLC) was > 100 µM and the TGI (KM12 colon) was > 100 µM. For the same compound, the TGI (SF-295 CNS) was > 100 µM, the TGI (LOX IMVI melanoma) was > 100 µM and the TGI (UACC-62 melanoma) was > 100 µM. For the same compound, the TGI (HCT-116 colon) was > 100 µM.

For `CCc1cccc(CC)c1NC(=O)C1=C(C)NC(C)=C(C(=O)Nc2c(CC)cccc2CC)C1c1ccc([N+](=O)[O-])cc1`, the TGI (RPMI-8226 leukemia) was 37.4 µM, the TGI (HL-60(TB) leukemia) was 48.7 µM and the TGI (HOP-92 NSCLC) was 39.6 µM. For the same compound, the TGI (A549 NSCLC) was > 100 µM, the TGI (KM12 colon) was 48.8 µM and the TGI (SF-295 CNS) was 38.6 µM. The TGI (LOX IMVI melanoma) was > 100 µM and the TGI (HCT-116 colon) was 46.4 µM.

Compound `COc1ccc(OC)c(-c2cc(-c3ccc(Cl)cc3)nn2-c2ccc(S(=O)(=O)NC(C)=O)cc2)c1` has a GI50 (RPMI-8226 leukemia) of 4.75 µM, a TGI (RPMI-8226 leukemia) of 7.5 µM and a GI50 (HL-60(TB) leukemia) of 3.7 µM. The TGI (HL-60(TB) leukemia) was 41.9 µM, the GI50 (HOP-92 NSCLC) was 10.2 µM and the TGI (HOP-92 NSCLC) was 33.2 µM. The GI50 (A549 NSCLC) was 28.6 µM, the TGI (A549 NSCLC) was > 100 µM and the GI50 (KM12 colon) was 20.3 µM. The TGI (KM12 colon) was 46.2 µM, the GI50 (SF-295 CNS) was 42.8 µM and the TGI (SF-295 CNS) was > 100 µM. For the same compound, the GI50 (LOX IMVI melanoma) was 1.79 µM, the TGI (LOX IMVI melanoma) was 3.65 µM and the GI50 (UACC-62 melanoma) was 3.22 µM. It also gave a TGI (UACC-62 melanoma) of 11.2 µM, a GI50 (HCT-116 colon) of 2.84 µM and a TGI (HCT-116 colon) of 11.2 µM.

In the case of `SCCSCCCSCCS`, the TGI (HL-60(TB) leukemia) is reported as 45.6 µM, the TGI (SR leukemia) is reported as 32.7 µM and the TGI (A549 NSCLC) is reported as > 100 µM. For the same compound, the TGI (KM12 colon) was > 100 µM, the TGI (SF-295 CNS) was > 100 µM and the TGI (LOX IMVI melanoma) was > 100 µM. The TGI (UACC-62 melanoma) was > 100 µM and the TGI (HCT-116 colon) was > 100 µM.

For `CO[C@H](C(=O)[C@@H](O)[C@@H](C)O)[C@@H]1Cc2cc3cc(OC4CC(OC5CC(O)C(O)C(C)O5)C(O)C(C)O4)c(C)c(O)c3c(O)c2C(=O)[C@H]1OC1CC(OC2CC(OC3CC(C)(O)C(O)C(C)O3)C(O)C(C)O2)C(O)C(C)O1` (some centres undefined), the GI50 (RPMI-8226 leukemia) was 0.0265 µg/mL and 0.0214 µg/mL, the GI50 (HL-60(TB) leukemia) was 0.05 µg/mL and 0.0761 µg/mL and the GI50 (HOP-92 NSCLC) was 0.0278 µg/mL and 0.016 µg/mL. For the same compound, the GI50 (A549 NSCLC) was 0.027 µg/mL and 0.0212 µg/mL, the GI50 (KM12 colon) was 0.0197 µg/mL and 0.0207 µg/mL and the GI50 (SF-295 CNS) was 0.0253 µg/mL. For the same compound, the GI50 (LOX IMVI melanoma) was 0.0262 µg/mL, the GI50 (UACC-62 melanoma) was 0.011 µg/mL and the GI50 (HCT-116 colon) was 0.0194 µg/mL and 0.0116 µg/mL.

For `COc1cc(CNc2ccccc2C(=O)N2CCN(C(=O)c3cc(-c4cc(OC)c(OC)c(OC)c4)n4nc(-c5ccccc5)cc4n3)CC2)cc(OC)c1OC`, the GI50 (HL-60(TB) leukemia) was 1.98 µM, the TGI (HL-60(TB) leukemia) was > 100 µM and the GI50 (SR leukemia) was 0.581 µM. The TGI (SR leukemia) was > 100 µM, the GI50 (A549 NSCLC) was 3.55 µM and the TGI (A549 NSCLC) was > 100 µM. For the same compound, the GI50 (KM12 colon) was 2.78 µM, the TGI (KM12 colon) was > 100 µM and the GI50 (LOX IMVI melanoma) was 4.86 µM. The TGI (LOX IMVI melanoma) was > 100 µM, the GI50 (UACC-62 melanoma) was 2.37 µM and the TGI (UACC-62 melanoma) was > 100 µM.

In the case of `COC(=O)C(Cc1nc2ccccc2[nH]c1=O)C(=O)C(=O)Nc1ccc([N+](=O)[O-])cc1[N+](=O)[O-]` (centres undefined), the TGI (RPMI-8226 leukemia) is reported as 85.1 µM, the TGI (HL-60(TB) leukemia) is reported as 66.5 µM and the TGI (SR leukemia) is reported as > 100 µM. For the same compound, the TGI (A549 NSCLC) was > 100 µM, the TGI (KM12 colon) was 30.1 µM and the TGI (SF-295 CNS) was 49.9 µM. For the same compound, the TGI (LOX IMVI melanoma) was 44.4 µM, the TGI (UACC-62 melanoma) was 38.9 µM and the TGI (HCT-116 colon) was 46.5 µM.

With `O=Cc1ccc(-c2ccc(-c3nc4ccccc4o3)cc2)o1` the GI50 (HL-60(TB) leukemia) was > 100 µM, the TGI (HL-60(TB) leukemia) was > 100 µM and the GI50 (A549 NSCLC) was 58.9 µM. The TGI (A549 NSCLC) was > 100 µM, the GI50 (KM12 colon) was 21 µM and the TGI (KM12 colon) was 53.4 µM. The GI50 (SF-295 CNS) was 28 µM, the TGI (SF-295 CNS) was 85 µM and the GI50 (LOX IMVI melanoma) was 23 µM. The TGI (LOX IMVI melanoma) was 60.2 µM, the GI50 (UACC-62 melanoma) was 21.7 µM and the TGI (UACC-62 melanoma) was 63.3 µM. It also gave a GI50 (HCT-116 colon) of 27.1 µM and a TGI (HCT-116 colon) of 80.4 µM.

Compound `CCC(CNc1cc(OC)cc2cccnc12)NC1CCCCC1` (centres undefined) has a GI50 (HL-60(TB) leukemia) of 15.2 µM, a TGI (HL-60(TB) leukemia) of 41.7 µM and a GI50 (SR leukemia) of 24.5 µM. For the same compound, the TGI (SR leukemia) was 96.1 µM, the GI50 (A549 NSCLC) was 63.3 µM and the TGI (A549 NSCLC) was > 100 µM. For the same compound, the GI50 (KM12 colon) was 27.6 µM, the TGI (KM12 colon) was > 100 µM and the GI50 (SF-295 CNS) was 17.3 µM. For the same compound, the TGI (SF-295 CNS) was 45.8 µM, the GI50 (LOX IMVI melanoma) was 28.6 µM and the TGI (LOX IMVI melanoma) was > 100 µM. For the same compound, the GI50 (UACC-62 melanoma) was 40.1 µM, the TGI (UACC-62 melanoma) was > 100 µM and the GI50 (HCT-116 colon) was 10.9 µM. For the same compound, the TGI (HCT-116 colon) was 27.9 µM.

For `Nc1ccn(C2OC(COC(=O)C34CC5CC(CC(C5)C3)C4)C(O)C2O)c(=O)n1` (centres undefined), the TGI (RPMI-8226 leukemia) was > 100 µM, the TGI (HL-60(TB) leukemia) was > 34.1 µM and the TGI (HOP-92 NSCLC) was > 100 µM. For the same compound, the TGI (A549 NSCLC) was > 100 µM, the TGI (KM12 colon) was > 100 µM and the TGI (SF-295 CNS) was > 100 µM. For the same compound, the TGI (LOX IMVI melanoma) was > 100 µM, the TGI (UACC-62 melanoma) was > 100 µM and the TGI (HCT-116 colon) was > 100 µM.

Work on `CN(C)C=C1C(Cl)=C(C=O)CC(C=O)=C1Cl` yielded a TGI (RPMI-8226 leukemia) of 7.2 µM, a TGI (HL-60(TB) leukemia) of 4.74 µM and a TGI (HOP-92 NSCLC) of 21.8 µM. For the same compound, the TGI (A549 NSCLC) was > 100 µM, the TGI (KM12 colon) was 22.1 µM and the TGI (SF-295 CNS) was 41.7 µM. For the same compound, the TGI (LOX IMVI melanoma) was 6.07 µM and the TGI (UACC-62 melanoma) was 32.5 µM.

With `COc1ccc(C2SCC(=O)N2NC(=O)c2ccc(NC(C)=O)cc2)cc1` (centres undefined) the TGI (RPMI-8226 leukemia) was > 100 µM, the TGI (HOP-92 NSCLC) was 89.2 µM and the TGI (A549 NSCLC) was > 100 µM. The TGI (KM12 colon) was > 100 µM, the TGI (SF-295 CNS) was > 100 µM and the TGI (UACC-62 melanoma) was > 100 µM. For the same compound, the TGI (HCT-116 colon) was > 100 µM.

`Cc1cc(Cl)ccc1NC(=O)C(=O)C(C(=O)c1ccc2ccccc2c1)C1OC(=O)c2ccccc21` (centres undefined) showed a TGI (RPMI-8226 leukemia) of 35.5 µM, a TGI (HOP-92 NSCLC) of 34.5 µM and a TGI (A549 NSCLC) of 94.5 µM. It also gave a TGI (KM12 colon) of 52.3 µM, a TGI (LOX IMVI melanoma) of 32.2 µM and a TGI (UACC-62 melanoma) of 24 µM. For the same compound, the TGI (HCT-116 colon) was 21.7 µM.

With `Cc1cc(C)c(Cn2cnc3c(Cl)ncnc32)c(C)c1CCl` the GI50 (RPMI-8226 leukemia) was 24.4 µM, the TGI (RPMI-8226 leukemia) was > 100 µM and the GI50 (HL-60(TB) leukemia) was 27.2 µM. The TGI (HL-60(TB) leukemia) was 59.9 µM, the GI50 (SR leukemia) was 12.7 µM and the TGI (SR leukemia) was 47.4 µM. For the same compound, the GI50 (A549 NSCLC) was 37.7 µM, the TGI (A549 NSCLC) was > 100 µM and the GI50 (KM12 colon) was 31.1 µM. The TGI (KM12 colon) was > 100 µM, the GI50 (SF-295 CNS) was > 100 µM and the TGI (SF-295 CNS) was > 100 µM. The GI50 (LOX IMVI melanoma) was 0.652 µM, the TGI (LOX IMVI melanoma) was 8.69 µM and the GI50 (UACC-62 melanoma) was 61.3 µM. For the same compound, the TGI (UACC-62 melanoma) was > 100 µM, the GI50 (HCT-116 colon) was 68.8 µM and the TGI (HCT-116 colon) was > 100 µM.
